The numbers were not newly measured in patent US20140363510A1, “PHARMACEUTICAL COMPOSITION INCLUDING PIMOBENDAN” (BOEHRINGER INGELHEIM VETMEDICA GMBH, priority 2004, published 2014), which cites them from elsewhere.

Regarding `COc1ccc(-c2nc3ccc(C4=NNC(=O)CC4C)cc3[nH]2)cc1` (centres unmarked) [Pimobendan, 4,5-dihydro-6-[2-(4-methoxyphenyl)-1H-benzimidazol-5-yl]-5-methyl-3(2H)-pyridazone], the “solubility in aqueous media” value (aqueous media, pH-dependent) was “low solubility in aqueous media and a very highly pH-dependent solubility”. In addition, the solubility in water result (water) was “hardly dissolves in water”.
